Data taken from US8791113B2, “2,4-diaryl-substituted [1,8] naphthyridines as kinase inhibitors for use against cancer” (Merck Patent GmbH, priority 2010, dated 2014).
Where a name gives a salt, the structure may show the parent alone. Read-outs that look alike come from different tables or passages of the source.

Experiments:
[1] = system: TGF-beta-induced phosphorylation of Smad2 (Ser465/467) and Smad3 (Ser423/425) in Mv1-Lu cells; assay: Inhibition of Smad2/3 phosphorylation in Mv1Lu cells (PathScan Phospho-Smad2 ELISA); format: cell-based, mink Mustela vison; conditions: Neogale vison, read-out: TβR activity (Example 51)
In short: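 Serum-starved mink Mv1-Lu lung epithelial cells were pretreated with compound for 1.5 h, then stimulated 1 h with 5 ng/ml TGF-beta 1 (0.2% DMSO). Phospho-Smad2/3 in lysates was quantified by ELISA against stimulated and unstimulated controls. IC50 was taken from dose-response fits.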

[2] = biological target: T1, GST-ALK5 (TGF-beta receptor kinase) (Homo sapiens, UniProt P36897); assay: In-vitro (enzyme) kinase flashplate assay: GST-ALK5 phosphorylation of GST-SMAD2 with 33P-ATP; format: biochemical; conditions: 384-well flashplate kinase assay, GST-ALK5 / GST-SMAD2, 33P-ATP, 30° C., 45 min; read-out: TβR activity (Example 50)
T1 sequence (P36897 34-503): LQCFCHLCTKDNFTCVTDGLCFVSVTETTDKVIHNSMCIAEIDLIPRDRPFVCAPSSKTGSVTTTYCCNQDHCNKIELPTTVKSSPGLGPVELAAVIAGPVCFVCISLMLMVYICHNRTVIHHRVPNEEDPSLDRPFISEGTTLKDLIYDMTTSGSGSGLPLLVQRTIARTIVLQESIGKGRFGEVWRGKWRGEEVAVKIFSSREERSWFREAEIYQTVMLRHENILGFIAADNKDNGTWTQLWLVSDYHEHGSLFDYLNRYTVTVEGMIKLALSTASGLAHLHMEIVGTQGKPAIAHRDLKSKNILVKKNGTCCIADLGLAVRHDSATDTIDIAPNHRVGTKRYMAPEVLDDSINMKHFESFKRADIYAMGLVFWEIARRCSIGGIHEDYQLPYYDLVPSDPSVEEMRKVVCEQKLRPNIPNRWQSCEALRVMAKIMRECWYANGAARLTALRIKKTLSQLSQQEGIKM
In short: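 Flashplate format: 31.2 nM GST-ALK5, 439 nM GST-SMAD2, 3 mM ATP with 33P-ATP in HEPES/MgCl2/MnCl2/DTT/BSA buffer, pH 7.4, 45 min at 30 °C, 5–10 compound concentrations. EDTA stop, saline washes, radioactivity counted. IC50 calculated from the counts.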

[3] = Mv1-Lu cells, TGF-beta 1 5 ng/ml, Phospho-Smad2/3 ELISA

| SMILES | IC50 [1, 3] [nM] | IC50 [2] [nM] | IC50 [1] [nM] |
| --- | --- | --- | --- |
| Cn1cc(-c2cc(-c3cc(Cl)ccc3F)nc3ncccc23)c2ccncc2c1=O [Compound 74, 4-[2-(5-Chloro-2-fluoro-phenyl)-[1,8]naphthyridin-4-yl]-2-methyl-2H-[2,7]naphthyridin-1-one] | < 1000 | < 1000 | – |
| Cn1cc(-c2ccc(-c3cc(-c4ccccc4F)nc4ncccc34)c3cnccc23)cn1 [Compound 64, 2-(2-Fluoro-phenyl)-4-[5-(1-methyl-1H-pyrazol-4-yl)-isoquinolin-8-yl]-[1,8]naphthyridine] | < 1000 | 1000 to 10000 | – |
| Fc1ccc(Cl)cc1-c1cc(-c2coc3cnccc23)c2cccnc2n1 [Compound 12, 2-(5-Chloro-2-fluoro-phenyl)-4-furo[2,3-c]pyridin-3-yl-[1,8]naphthyridine] | < 1000 | < 1000 | – |
| Fc1ccc(Cl)cc1-c1cc(-c2cnc(OCCN3CCOCC3)c3cnccc23)c2cccnc2n1 [Compound 77, 2-(5-Chloro-2-fluoro-phenyl)-4-[1-(2-morpholin-4-yl-ethoxy)-[2,7]naphthyridin-4-yl]-[1,8]naphthyridine] | < 1000 | < 1000 | – |
| O=c1c2cnccc2c(-c2cc(-c3cc(Cl)ccc3F)nc3ncccc23)cn1CCCO [Compound 75, 4-[2-(5-Chloro-2-fluoro-phenyl)-[1,8]naphthyridin-4-yl]-2-(3-hydroxy-propyl)-2H-[2,7]naphthyridin-1-one] | < 1000 | < 1000 | – |
| Cn1cc(-c2ccc(-c3cc(-c4ccccc4F)nc4ncccc34)c3ccncc23)cn1 [Compound 65, 2-(2-Fluoro-phenyl)-4-[8-(1-methyl-1H-pyrazol-4-yl)-isoquinolin-5-yl]-[1,8]naphthyridine] | < 1000 | < 1000 | – |
| Nc1ccc(-c2cc(-c3cc(Cl)ccc3F)nc3ncccc23)c2ccncc12 [Compound 22, 5-[2-(5-Chloro-2-fluoro-phenyl)-[1,8]naphthyridin-4-yl]-isoquinolin-8-ylamine hydrochloride] | – | < 1000 | < 1000 |
| COc1nnc(-c2cc(-c3ccccc3F)nc3ncccc23)c2ccncc12 [Compound 32, 1-[2-(2-Fluoro-phenyl)-[1,8]naphthyridin-4-yl]-4-methoxy-pyrido[3,4-d]pyridazine] | > 10000 | < 1000 | – |

Now from value to compound, other results behind:

| IC50 [1, 3] [nM] | IC50 [2] [nM] | SMILES | IC50 [1] [nM] |
| --- | --- | --- | --- |
| < 1000 | < 1000 | Cc1occc1-c1cc(-c2c[nH]c3cnccc23)c2cccnc2n1 [Compound 108, 2-(2-Methyl-furan-3-yl)-4-(1H-pyrrolo[2,3-c]pyridin-3-yl)-[1,8]naphthyridine] | – |
| < 1000 | < 1000 | CCN(CC)CCNc1ccc(-c2cc(-c3cc(Cl)ccc3F)nc3ncccc23)c2ccncc12 [Compound 92, N′-{5-[2-(5-Chloro-2-fluoro-phenyl)-[1,8]naphthyridin-4-yl]-isoquinolin-8-yl}-N,N-diethyl-ethane-1,2-diamine] | – |
| < 1000 | < 1000 | Fc1ccc(Cl)cc1-c1cc(-c2ccc(Cl)c3cnccc23)c2cccnc2n1 [Compound 83, 2-(5-Chloro-2-fluoro-phenyl)-4-(8-chloro-isoquinolin-5-yl)-[1,8]naphthyridine] | – |
| < 1000 | < 1000 | O=c1[nH]cc(-c2cc(-c3cc(F)ccc3F)nc3ncccc23)c2ccncc12 [Compound 107, 4-[2-(2,5-Difluoro-phenyl)-[1,8]naphthyridin-4-yl]-2H-[2,7]naphthyridin-1-one] | – |
| 1000 to 10000 | < 1000 | Fc1ccccc1-c1cc(-c2cnc(OCCN3CCOCC3)c3cnccc23)c2cccnc2n1 [Compound 78, 2-(2-Fluoro-phenyl)-4-[1-(2-morpholin-4-yl-ethoxy)-[2,7]naphthyridin-4-yl]-[1,8]naphthyridine] | – |
